Where “and” joins values, the source holds several entries; their conditions need not be identical. Equal entries are not always repeated. Where two headings read alike, the source gives them in different places.
Experiments:
Sphaerotheca fuliginea = assay type: in vivo
Erysiphe graminis = assay: Test on preventive effect against wheat powdery mildew (Test Example 1); assay type: in vivo
Botrytis cinerea [1] = assay: Test on antifungal activity against gray mold pathogen, intersecting filter papers (Test Examples 7 and 8); assay type: cell-based; details: for distance from both ends of the filter paper to mycelial growth area of Botrytis cinerea (average): single use section, 30 ppm; for controlling effect (contact of filter paper with mycelial growth area of Botrytis cinerea): single use, filter paper immersed in 30 ppm solution, 20° C. for 4 days
Botrytis cinerea [2] = assay: Test on preventive effect against kidney bean gray mold (Test Example 4); assay type: in vivo
Procedure: Kidney bean (cultivar: Taisyou Kintoki) was cultivated in a plastic pot having a diameter of 12.0 cm, and when it reached 2.5-leaf stage, a mixed chemical solution having the respective test compounds adjusted to prescribed concentrations, was applied by a spray gun in an amount of 10 ml per seedling. After the chemical solution dried, the leaf was cut out, and a filter paper disk (8 mm in diameter) was placed on the leaf. Then, 120 μl of a suspension of spores of Botrytis cinerea (1.0×10^6 spores/ml) was dropped thereon and inoculated. The system was maintained under a humidity condition at 20° C. for three days, whereupon the area of lesions was investigated, and the diseased area ratio to non-treated section was obtained in the same manner as in Test Example 3. Further, the theoretical value was calculated by a Colby's formula and shown in brackets ( ) in Tables 4-1 to 4-19. Since the diseased area ratio to non-treated section (experimental value) is lower than the theoretical value, the composition of the present invention can be said to have a synergistic effect.

Septoria nodorum = assay: Test on preventive effect against wheat glum bloth (Test Example 3); assay type: in vivo
Procedure: Wheat (cultivar: Norin-61-go) was cultivated in a plastic pot having a diameter of 7.5 cm, and when it reached 1.5-leaf stage, a mixed chemical solution having the respective sample compounds adjusted to prescribed concentrations, was applied by a spray gun in an amount of 10 ml per seedling. After the chemical solution dried, a suspension of conidia of Septoria nodorum was sprayed and inoculated and maintained at 20° C. for 7 days (for the first 3 days maintained under high humidity condition). Thereafter, the area of lesions was investigated, and the diseased area ratio to non-treated section was obtained by the following equation. Diseased area ratio to non-treated section=(a/b)×100
a: Average area of lesions in treated section
b: Average area of lesions in non-treated section
Further, the theoretical value was calculated by a Colby's formula and shown in brackets ( ) in Tables 3-1 to 3-14. Since the diseased area ratio to non-treated section (experimental value) is lower than the theoretical value, the composition of the present invention can be said to have a synergistic effect.

Botrytis cinerea [3] = assay: Test on antifungal activity against gray mold pathogen, mycelial growth on agar (Test Example 6); assay type: cell-based
Procedure: Mycelial growth of Botrytis cinerea preliminarily obtained by cultivation was punched out by a cork borer having a diameter of 4 mm and transplanted on a potato sucrose agar medium containing mixed chemical agents adjusted to prescribed concentrations. The system was left to stand at 25° C. for 3 days for cultivation, whereupon the diameter of mycelial growth was measured. The incidence to non-treated section was obtained in the same manner as the above Test Example 5, and the results are shown in Table 6-1 to 6-3.
Further, the theoretical value was calculated by a Colby's formula and shown in brackets ( ) in Tables 6-1 to 6-3. Since the incidence to non-treated section is lower than the theoretical value, the composition of the present invention can be said to have a synergistic effect.

Phyicularia oryzae = assay type: cell-based
[4] = partner fungicide alone 0.125 ppm

Compound: Cc1cc(OC(C)C)ccc1C(=O)C(C)(C)NC(=O)c1sccc1C [No. 5]
- diseased area ratio to non-treated section (Sphaerotheca fuliginea; Compound No.x alone 8 ppm): 2.5
- diseased area ratio to non-treated section (Erysiphe graminis; Compound No.x alone 16 ppm): 25.0
- diseased area ratio to non-treated section (Erysiphe graminis; Compound No.x alone 31 ppm): 17.5 and 12.5
- diseased area ratio to non-treated section (Erysiphe graminis; Compound No.x alone 63 ppm): 10.0
- diseased area ratio to non-treated section (Erysiphe graminis; Compound No.x alone 125 ppm): 2.5

Compound: O=[N+]([O-])c1cc(C(F)(F)F)c(Cl)c([N+](=O)[O-])c1Nc1ncc(C(F)(F)F)cc1Cl [fluazinam, reference compound]
- diseased area ratio to non-treated section (Sphaerotheca fuliginea; partner fungicide alone 125 ppm): 17.5
- diseased area ratio to non-treated section (Sphaerotheca fuliginea; partner fungicide alone 250 ppm): 4.0
- diseased area ratio to non-treated section (Sphaerotheca fuliginea; partner fungicide alone 500 ppm): 2.0
- distance from both ends of the filter paper to mycelial growth area of Botrytis cinerea (average) (Botrytis cinerea [1]): 5 mm
- controlling effect (contact of filter paper with mycelial growth area of Botrytis cinerea) (Botrytis cinerea [1]): a certain controlling effect

Compound: Cc1ccsc1C(=O)NC(C)(C)C(=O)c1ccc(OC(C)C)cc1 [No. 8]
- diseased area ratio to non-treated section (Sphaerotheca fuliginea; Compound No.x alone 1 ppm): 81.3
- diseased area ratio to non-treated section (Sphaerotheca fuliginea; Compound No.x alone 2 ppm): 45.0 and 75.0
- diseased area ratio to non-treated section (Erysiphe graminis; Compound No.x alone 63 ppm): 60.0
- diseased area ratio to non-treated section (Erysiphe graminis; Compound No.x alone 125 ppm): 55.0 and 30.0

Compound: COC(=O)NCc1cc(/C(C)=N/OCc2cccc(C)n2)ccc1Cl [pyribencarb]
- diseased area ratio to non-treated section (experimental value) (Botrytis cinerea [2]; single use at 4 ppm): 70.0
- diseased area ratio to non-treated section (experimental value) (Botrytis cinerea [2]; single use at 8 ppm): 65.0

Compound: CC1(C)COC(C)(CCCc2ccc(Cl)cc2)N1C(=O)n1ccnc1.CC1(C)COC(C)(CCCc2ccc(Cl)cc2)N1C(=O)n1ccnc1.O=C(O)/C=C/C(=O)O (stereo not drawn) [oxpoconazole fumarate]
- distance from both ends of the filter paper to mycelial growth area of Botrytis cinerea (average) (Botrytis cinerea [1]): 7.5 mm

Compound: CCCCC(C#N)(Cn1cncn1)c1ccc(Cl)cc1 (stereo not drawn) [myclobutanil]
- diseased area ratio to non-treated section (experimental value) (Septoria nodorum; single use at 5 ppm): 60.0
- diseased area ratio to non-treated section (experimental value) (Septoria nodorum; single use at 20 ppm): 35.0

Compound: COc1ccccc1N1CCSC1=C(C#N)Sc1cc(C(F)(F)F)ccc1F [Compound γ, 2-(2-fluoro-5-(trifluoromethyl)phenylthio)-2-(3-(2-methoxyphenyl)thiazolidin-2-yliden)acetonitrile, reference compound]
- diseased area ratio to non-treated section (experimental value) (Botrytis cinerea [2]; single use at 1 ppm): 88.6
- diseased area ratio to non-treated section (experimental value) (Botrytis cinerea [2]; single use at 10 ppm): 88.6

Compound: CCCOc1nc2ccc(I)cc2c(=O)n1CCC [proquinazid]
- diseased area ratio to non-treated section (experimental value) (Botrytis cinerea [2]; single use at 10 ppm): 96.2
- diseased area ratio to non-treated section (experimental value) (Botrytis cinerea [2]; single use at 100 ppm): 92.4

Compound: OC(Cc1ccccc1Cl)(Cn1nc[nH]c1=S)C1(Cl)CC1 (stereo not drawn) [prothioconazole]
- diseased area ratio to non-treated section (experimental value) (Septoria nodorum; single use at 10 ppm): 30.0

Compound: Cc1cc(OC(C)C)ccc1C(=O)C(C)(C)NC(=O)c1ncccc1C(F)(F)F [Compound No. 4, N-[[2′-methyl-4′-(2-propyloxy)-1,1-dimethyl]phenacyl]-3-trifluoromethyl-2-pyridinecarboxamide]
- diseased area ratio to non-treated section (Sphaerotheca fuliginea; Compound (a) alone 2 ppm): 7.5
- diseased area ratio to non-treated section (experimental value) (Botrytis cinerea [2]; single use at 4 ppm): 70.0 and 79.7
- diseased area ratio to non-treated section (experimental value) (Botrytis cinerea [2]; single use at 8 ppm): 64.6
- diseased area ratio to non-treated section (experimental value) (Septoria nodorum; single use at 12.5 ppm): 35.0
- diseased area ratio to non-treated section (experimental value) (Septoria nodorum; single use at 50 ppm): 20.0
- incidence to non-treated section (mycelial growth diameter) (Botrytis cinerea [3]; single use at 0.5 ppm): 45.2
- diseased area ratio to non-treated section (Erysiphe graminis; Compound (a) alone 125 ppm): 5.0 and 3.6
- diseased area ratio to non-treated section (Erysiphe graminis; Compound (a) alone 250 ppm): 0.6
- incidence to non-treated section (mycelial growth diameter) (Phyicularia oryzae): 69.6 and 71.7

Compound: O=C(Cc1ccccc1)N/C(=N\OCC1CC1)c1c(C(F)(F)F)ccc(F)c1F [cyflufenamid]
- diseased area ratio to non-treated section (experimental value) (Botrytis cinerea [2]; single use at 10 ppm): 87.3
- diseased area ratio to non-treated section (experimental value) (Botrytis cinerea [2]; single use at 100 ppm): 82.3

Compound: CCCC(C)Oc1ccc(C(=O)C(C)(C)NC(=O)c2ncccc2C(F)(F)F)cc1 (stereo not drawn) [Compound No. 11, N-[[4′-(2-pentyloxy)-1,1-dimethyl]phenacyl]-3-trifluoromethyl-2-pyridinecarboxamide]
- diseased area ratio to non-treated section (experimental value) (Sphaerotheca fuliginea; single use at 2 ppm): 7.5 and 12.5 and 15.0 and 10.0
- diseased area ratio to non-treated section (experimental value) (Botrytis cinerea [2]; single use at 4 ppm): 70.0
- diseased area ratio to non-treated section (experimental value) (Botrytis cinerea [2]; single use at 8 ppm): 55.7
- diseased area ratio to non-treated section (experimental value) (Septoria nodorum; single use at 12.5 ppm): 50.0
- diseased area ratio to non-treated section (experimental value) (Septoria nodorum; single use at 50 ppm): 25.0
- incidence to non-treated section (mycelial growth diameter) (Botrytis cinerea [3]; single use at 5 ppm): 46.0
- incidence to non-treated section (mycelial growth diameter) (Botrytis cinerea [3]; single use at 50 ppm): 32.3
- incidence to non-treated section (mycelial growth diameter) (Phyicularia oryzae): 63.0 and 73.9

Compound: O=C1C2CC=CCC2C(=O)N1SC(Cl)(Cl)Cl (stereo not drawn) [captan]
- incidence to non-treated section (mycelial growth diameter) (Botrytis cinerea [3]; single use at 1 ppm): 94.4

Compound: Cc1ccsc1C(=O)NC(C)(C)C(=O)c1ccc(Cl)c(Cl)c1 [Compound No. 2, N-[(3′,4′-dichloro-1,1-dimethyl)phenacyl]-3-methyl-2-thiophenecarboxamide]
- diseased area ratio to non-treated section (experimental value) (Botrytis cinerea [2]; single use at 4 ppm): 65.0
- diseased area ratio to non-treated section (experimental value) (Septoria nodorum; single use at 12.5 ppm): 50.0
- diseased area ratio to non-treated section (experimental value) (Septoria nodorum; single use at 50 ppm): 35.0
- diseased area ratio to non-treated section (Erysiphe graminis; Compound (a) alone 125 ppm): 97.5 and 90.0
- diseased area ratio to non-treated section (Erysiphe graminis; Compound (a) alone 250 ppm): 95.0 and 75.0
- diseased area ratio to non-treated section (Erysiphe graminis; Compound (a) alone 500 ppm): 70.0
- controlling effect (contact of filter paper with mycelial growth area of Botrytis cinerea) (Botrytis cinerea [1]): no adequate controlling effect
- incidence to non-treated section (mycelial growth diameter) (Phyicularia oryzae): 82.6

Compound: CC1CCN(c2c(-c3c(F)cc(F)cc3F)c(Cl)nc3ncnn23)CC1 [Compound α, 5-chloro-7-(4-methylpiperidin-1-yl)-6-(2,4,6-trifluorophenyl)-[1,2,4]triazolo[1,5-a]pyrimidine, reference compound]
- diseased area ratio to non-treated section (experimental value) (Botrytis cinerea [2]; single use at 4 ppm): 43.0
- diseased area ratio to non-treated section (experimental value) (Botrytis cinerea [2]; single use at 8 ppm): 15.0

Compound: Cc1ccsc1C(=O)NC(C)(C)C(=O)c1ccc(OC(C)C)cc1 [Compound No. 8, N-[[4′-(2-propyloxy)-1,1-dimethyl]phenacyl]-3-methyl-2-thiophenecarboxamide]
- diseased area ratio to non-treated section (experimental value) (Sphaerotheca fuliginea; single use at 1 ppm): 35.0
- diseased area ratio to non-treated section (experimental value) (Sphaerotheca fuliginea; single use at 2 ppm): 10.0
- diseased area ratio to non-treated section (experimental value) (Septoria nodorum; single use at 12.5 ppm): 35.0
- diseased area ratio to non-treated section (experimental value) (Septoria nodorum; single use at 50 ppm): 20.0

Compound: CCCC(C)Oc1ccc(C(=O)C(C)(C)NC(=O)c2ncccc2C(F)(F)F)cc1 (stereo not drawn) [No. 11]
- diseased area ratio to non-treated section (Sphaerotheca fuliginea; Compound No.x alone 8 ppm): 4.0
- diseased area ratio to non-treated section (Erysiphe graminis; Compound No.x alone 63 ppm): 45.0 and 60.0
- diseased area ratio to non-treated section (Erysiphe graminis; Compound No.x alone 125 ppm): 35.0
- diseased area ratio to non-treated section (Erysiphe graminis; Compound No.x alone 250 ppm): 22.5 and 12.5

Compound: Cc1cc(OC(C)C)ccc1C(=O)C(C)(C)NC(=O)c1sccc1C [Compound No. 5, N-[[2′-methyl-4′-(2-propyloxy)-1,1-dimethyl]phenacyl]-3-methyl-2-thiophenecarboxamide]
- diseased area ratio to non-treated section (experimental value) (Botrytis cinerea [2]; single use at 4 ppm): 74.0 and 83.5
- diseased area ratio to non-treated section (experimental value) (Botrytis cinerea [2]; single use at 8 ppm): 74.7
- diseased area ratio to non-treated section (experimental value) (Septoria nodorum; single use at 12.5 ppm): 30.0
- diseased area ratio to non-treated section (experimental value) (Septoria nodorum; single use at 50 ppm): 20.0
- incidence to non-treated section (mycelial growth diameter) (Botrytis cinerea [3]; single use at 5 ppm): 32.3
- diseased area ratio to non-treated section (Erysiphe graminis; Compound (a) alone 250 ppm): 0.6

Compound: C/C(=N/Nc1nc(C)cc(C)n1)c1ccccc1C [ferimzone]
- incidence to non-treated section (mycelial growth diameter) (Phyicularia oryzae; single use at 0.5 ppm): 10.9

Compound: Fc1ccc([C@]2(Cn3cncn3)O[C@H]2c2ccccc2Cl)cc1 (racemic) [epoxiconazole]
- diseased area ratio to non-treated section (Erysiphe graminis; fungicide (b) alone 0.5 ppm): 21.2
- diseased area ratio to non-treated section (Erysiphe graminis; fungicide (b) alone 1 ppm): 3.0

Compound: COc1cc(C)c(C(=O)c2c(OC)ncc(Cl)c2C)c(OC)c1OC [Compound D, 3-(2,3,4-trimethoxy-6-methylbenzoyl)-5-chloro-2-methoxy-4-methylpyridine]
- diseased area ratio to non-treated section (Erysiphe graminis; partner fungicide alone 0.06 ppm): 27.5
- diseased area ratio to non-treated section (Erysiphe graminis; [4]): 15.0

Compound: CCCN(CCOc1c(Cl)cc(Cl)cc1Cl)C(=O)n1ccnc1 [prochloraz]
- diseased area ratio to non-treated section (experimental value) (Septoria nodorum; single use at 5 ppm): 40.0
- diseased area ratio to non-treated section (experimental value) (Septoria nodorum; single use at 20 ppm): 15.0

Compound: CC(C)Oc1cccc(NC(=O)c2ccccc2C(F)(F)F)c1 [flutolanil]
- diseased area ratio to non-treated section (Erysiphe graminis; fungicide (b) alone 500 ppm): 7.5
- diseased area ratio to non-treated section (Erysiphe graminis; fungicide (b) alone 1000 ppm): 12.5

Compound: COc1cc(C)c(C(=O)c2c(Cl)cnc(Cl)c2C(F)(F)F)c(OC)c1OC [Compound A, 4-(2,3,4-trimethoxy-6-methylbenzoyl)-2,5-dichloro-3-trifluoromethylpyridine]
- diseased area ratio to non-treated section (Erysiphe graminis; [4]): 65
